From paper doi:10.1101/2020.10.11.335026v1, “Acquisition of a type 3 secretion signal in an housekeeping enzyme shaped glycogen metabolism in Chlamydia” (biorxiv, 2020)

Legend:
Assay type in all cases: biochemical
CpsG (HIS-CpsG) [1] = molecular target: T1, CpsG (HIS-CpsG) (Escherichia coli, UniProt P24175); test: Glc1P conversion with and without cofactor by HPAEC-PAD; conditions: 0.2 mg/mL Glc1,6diP, 0.66 mg/ml Glc1P, 10 mM Tris-HCl pH 8.0, 37 °C, 20 min
T1 construct: gene manB; His-tagged, recombinant from E. coli BL21(DE3), Ni-NTA and size exclusion; tag terminus printed as C-terminal in Methods
T1 sequence (P24175 1-456): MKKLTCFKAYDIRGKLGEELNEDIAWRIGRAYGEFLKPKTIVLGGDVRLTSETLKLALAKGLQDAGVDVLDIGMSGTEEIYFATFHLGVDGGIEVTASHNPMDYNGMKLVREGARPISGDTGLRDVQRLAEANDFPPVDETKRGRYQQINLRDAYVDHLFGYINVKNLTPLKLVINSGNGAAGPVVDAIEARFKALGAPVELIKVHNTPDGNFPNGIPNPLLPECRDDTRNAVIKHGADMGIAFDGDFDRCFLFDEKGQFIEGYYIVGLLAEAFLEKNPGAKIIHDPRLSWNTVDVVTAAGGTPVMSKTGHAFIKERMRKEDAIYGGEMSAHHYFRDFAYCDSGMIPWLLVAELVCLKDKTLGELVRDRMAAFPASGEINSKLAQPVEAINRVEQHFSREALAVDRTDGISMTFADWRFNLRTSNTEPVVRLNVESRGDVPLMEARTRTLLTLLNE

CT815 (HIS-CT815) = molecular target: T2, CT815 (HIS-CT815) (Chlamydia trachomatis, UniProt B0B944); test: conversion to Glc6P by HPAEC-PAD; conditions: 0.66 mg/ml Glc1P, 0.1 mg/mL enzyme, 0.2 mg/mL Glc1,6diP, 10 mM Tris-HCl pH 8.0, 37 °C, 20 min
T2 construct: gene glmM; His-tagged, in pET28a, recombinant from E. coli BL21(DE3), Ni-NTA and size exclusion; tag printed as amino-terminal in Results but C-terminal in Methods

CCA00034 (HIS-CCA00034) [2] = molecular target: T3, CCA00034 (HIS-CCA00034) (Chlamydia caviae, UniProt Q823R2); test: conversion to Glc6P by HPAEC-PAD; conditions: 0.66 mg/ml Glc1P, 0.1 mg/mL enzyme, 0.2 mg/mL Glc1,6diP (not required), 10 mM Tris-HCl pH 8.0, 37 °C, 20 min
T3 construct: gene CCA_00344; His-tagged, recombinant from E. coli BL21(DE3), Ni-NTA and size exclusion; tag printed as amino-terminal in Results but C-terminal in Methods; tag not reported cut

CpsG (HIS-CpsG) [3] = molecular target: T1, CpsG (HIS-CpsG); test: conversion to Glc6P by HPAEC-PAD; conditions: 0.66 mg/ml Glc1P, 0.1 mg/mL enzyme, 0.2 mg/mL Glc1,6diP, 10 mM Tris-HCl pH 8.0, 37 °C, 20 min
CCA00034 (HIS-CCA00034) [4] = molecular target: T3, CCA00034 (HIS-CCA00034); test: reverse reaction to Glc1P by HPAEC-PAD; conditions: 0.33 mg/ml Glc6P, 0.1 mg/mL enzyme, 0.2 mg/mL Glc1,6diP, 10 mM Tris-HCl pH 8.0, 37 °C, 20 min

T3 sequence (Q823R2 entry or part of it): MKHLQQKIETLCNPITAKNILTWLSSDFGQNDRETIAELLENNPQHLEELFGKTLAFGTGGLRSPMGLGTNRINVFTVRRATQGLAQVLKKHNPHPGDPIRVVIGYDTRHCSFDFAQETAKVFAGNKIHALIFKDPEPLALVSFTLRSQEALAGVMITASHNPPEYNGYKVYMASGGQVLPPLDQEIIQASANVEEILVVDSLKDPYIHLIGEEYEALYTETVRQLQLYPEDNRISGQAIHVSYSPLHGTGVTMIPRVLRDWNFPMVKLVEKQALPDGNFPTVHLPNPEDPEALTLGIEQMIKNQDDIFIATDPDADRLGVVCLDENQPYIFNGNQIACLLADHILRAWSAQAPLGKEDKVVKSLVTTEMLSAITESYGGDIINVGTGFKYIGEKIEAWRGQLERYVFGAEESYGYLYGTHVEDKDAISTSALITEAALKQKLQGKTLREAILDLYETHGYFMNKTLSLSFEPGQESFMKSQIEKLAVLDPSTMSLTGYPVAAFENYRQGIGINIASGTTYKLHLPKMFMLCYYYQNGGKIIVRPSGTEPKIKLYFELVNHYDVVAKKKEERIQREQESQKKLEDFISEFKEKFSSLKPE
T2 sequence (B0B944 whole entry): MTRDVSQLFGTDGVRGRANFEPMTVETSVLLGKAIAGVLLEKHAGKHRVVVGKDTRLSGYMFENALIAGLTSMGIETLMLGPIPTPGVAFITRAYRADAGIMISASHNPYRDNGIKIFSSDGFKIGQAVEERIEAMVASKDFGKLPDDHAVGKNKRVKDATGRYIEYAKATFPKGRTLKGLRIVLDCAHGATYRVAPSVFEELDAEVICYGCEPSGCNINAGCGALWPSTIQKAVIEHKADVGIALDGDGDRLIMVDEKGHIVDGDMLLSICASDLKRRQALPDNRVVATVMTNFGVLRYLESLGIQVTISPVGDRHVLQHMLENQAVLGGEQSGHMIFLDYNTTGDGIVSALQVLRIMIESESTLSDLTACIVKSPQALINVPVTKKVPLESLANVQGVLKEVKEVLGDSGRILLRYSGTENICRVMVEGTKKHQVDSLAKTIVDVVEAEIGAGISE

O=P(O)(O)OC[C@H]1O[C@H](OP(=O)(O)O)[C@H](O)[C@@H](O)[C@@H]1O [Glc1,6diP]
Glc1P conversion with and without cofactor by HPAEC-PAD (CpsG (HIS-CpsG) [1]): CpsG required the presence of Glc1,6diP for optimal conversion of Glc1P into Glc6P

O=P(O)(O)O[C@H]1O[C@H](CO)[C@@H](O)[C@H](O)[C@H]1O [Glc1P]
conversion to Glc6P by HPAEC-PAD (CT815 (HIS-CT815)): only low levels of Glc6P were detected in the presence of HIS-CT815
conversion to Glc6P by HPAEC-PAD (CCA00034 (HIS-CCA00034) [2]): Incubation of Glc1P in the presence of HIS-CCA00034 led to its full conversion into Glc6P
conversion to Glc6P by HPAEC-PAD (CpsG (HIS-CpsG) [3]): HIS-CpsG required the presence of Glc1,6diP to convert Glc1P into Glc6P

O=P(O)(O)OC[C@H]1OC(O)[C@H](O)[C@@H](O)[C@@H]1O (some centres unmarked) [Glc6P]
reverse reaction to Glc1P by HPAEC-PAD (CCA00034 (HIS-CCA00034) [4]): very low amounts of Glc1P were detected after incubation with HIS-CCA00034 or HIS-CpsG
